Assay results from ChEMBL document CHEMBL5543059, “Discovery of anti-inflammatory natural flavonoids: Diverse scaffolds and promising leads for drug discovery” (Eur J Med Chem, 2023).
Values after ≈ are worked out from the molar mass of the structure shown. Blank lines part the entries; values can stand above or below the molecule they belong to.

Columns and labels:
J774.A1 = assay: Antiinflammatory activity against mouse J774.A1 cells assessed as inhibition of LPS-stimulated TNF-alpha level by ELISA method; type: functional, cell-based
RAW264.7 [1] = assay: Antiinflammatory activity against mouse RAW264.7 cells assessed as inhibition of LPS-stimulated TNF-alpha level by ELISA method; type: functional, cell-based
[2] = Antioxidant activity assessed as DPPH radical scavenging activity at 100 microg/ml relative to control; type: functional; conditions: dose 100.0 µg/ml
RAW264.7 [3] = assay: Inhibition of NF-kappaB activation in mouse RAW264.7 cells expressing luciferase gene at 100 microg/ml by luciferase reporter gene assay; type: cell-based; conditions: dose 100.0 µg/ml
[4] = Anti-inflammatory activity in LPS-stimulated human PBMC cells assessed as COX-2 inhibition at 100 ug/ml relative to control; type: functional; parameters: scale not given: the % may be the effect or the level left; conditions: dose 100 µg/ml
[5] = Anti-inflammatory activity in LPS-stimulated human PBMC cells assessed as 5-lipoxygenase inhibition at 100 ug/ml relative to control; type: functional; parameters: scale not given: the % may be the effect or the level left; conditions: dose 100 µg/ml
[6] = Anti-inflammatory activity in LPS-stimulated human PBMC cells assessed as inhibition of TNFalpha at 100 ug/ml relative to control; type: functional; parameters: scale not given: the % may be the effect or the level left; conditions: dose 100 µg/ml
Neutrophil = assay: Inhibition of fMLF/CB-induced human Neutrophil activation assessed as reduction in superoxide anion at 10 uM relative to control; type: functional; parameters: scale not given: the % may be the effect or the level left
[7] = Inhibition of TNF-alpha induced NF-kappaB activation in HEK293-A cells incubated for 15 mins by Western blot analysis; type: cell-based; conditions: Homo sapiens, HEK293, 0.25 h
HEK293 = assay: Anti-inflammatory activity against TNFalpha-induced HEK293 cells assessed as inhibition of NF-kappaB activity pre-indubated for 1 hr followed by TNFalpha treatment measured for 5 hrs by luciferase based assay; type: functional, cell-based; conditions: Homo sapiens
Mus musculus [8] = assay: Antiinflammatory activity against TPA-induced mouse ear edema model assessed as reduction in NO production measured after 4 hrs; type: functional, organism-based
BV-2 = assay: Antineuroinflammatory activity in LPS-induced mouse BV-2 cells assessed as inhibition of NO production pre-incubated for 2 hr followed by LPS-stimulation measured for 24 hrs by Griess reagent based analysis; type: functional, cell-based
[9] = biological target: T1, Polyunsaturated fatty acid 5-lipoxygenase (Homo sapiens) (UniProt P09917); assay: Inhibition of 5-Lipoxygenase (unknown origin) at 30 uM relative to control
T1 sequence (whole entry): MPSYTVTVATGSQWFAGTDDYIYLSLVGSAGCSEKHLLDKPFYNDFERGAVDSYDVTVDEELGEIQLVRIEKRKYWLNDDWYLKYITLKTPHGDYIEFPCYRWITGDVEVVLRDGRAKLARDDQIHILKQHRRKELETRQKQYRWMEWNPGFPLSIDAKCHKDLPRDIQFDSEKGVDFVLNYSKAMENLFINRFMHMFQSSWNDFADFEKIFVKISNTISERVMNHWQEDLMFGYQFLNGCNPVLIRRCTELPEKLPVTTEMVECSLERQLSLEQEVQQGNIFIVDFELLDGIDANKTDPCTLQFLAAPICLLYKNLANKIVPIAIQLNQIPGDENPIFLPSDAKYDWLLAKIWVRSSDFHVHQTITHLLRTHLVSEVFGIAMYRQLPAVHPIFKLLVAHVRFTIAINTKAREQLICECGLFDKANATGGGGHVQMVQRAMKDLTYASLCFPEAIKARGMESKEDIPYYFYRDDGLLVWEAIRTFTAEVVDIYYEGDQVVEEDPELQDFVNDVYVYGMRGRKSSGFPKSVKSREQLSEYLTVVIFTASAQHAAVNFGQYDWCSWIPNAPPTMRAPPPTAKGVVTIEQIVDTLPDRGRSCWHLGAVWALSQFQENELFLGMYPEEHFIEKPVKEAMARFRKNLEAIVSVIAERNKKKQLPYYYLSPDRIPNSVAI

RAW264.7 [10] = assay: Anti-inflammatory activity in mouse RAW264.7 cells assessed as inhibition of LPS-induced NO production at 20 uM by Griess reagent based analysis relative to control; type: functional; parameters: scale not given: the % may be the effect or the level left
RAW264.7 [11] = assay: Anti-inflammatory activity in LPS-stimulated mouse RAW264.7 cells assessed as inhibition of NO production incubated for 24 hrs by Griess reagent based assay; type: functional, cell-based; conditions: RAW264.7, 24 h
[12] = Antioxidant activity assessed as DPPH radical scavenging activity measured for 30 mins; type: functional
[13] = Antioxidant activity assessed as ABTS radical scavenging activity incubated for 40 mins; type: functional
Mus musculus [14] = assay: Anti-inflammatory activity in mouse model of xylene-induced auricle edema assessed as inhibition of ear swelling at 50 mg/kg, IG pre-treated for 1 hr followed by xylene addition and measured after 1 hr relative to control; type: functional; parameters: scale not given: the % may be the effect or the level left
[15] = biological target: T2, Inhibitor of nuclear factor kappa-B kinase subunit beta (Homo sapiens) (UniProt O14920); assay: Inhibition of IKKbeta phosphorylation in high glucose-induced HUVEC cells at 0.1 uM relative to control; type: cell-based
T2 sequence (whole entry): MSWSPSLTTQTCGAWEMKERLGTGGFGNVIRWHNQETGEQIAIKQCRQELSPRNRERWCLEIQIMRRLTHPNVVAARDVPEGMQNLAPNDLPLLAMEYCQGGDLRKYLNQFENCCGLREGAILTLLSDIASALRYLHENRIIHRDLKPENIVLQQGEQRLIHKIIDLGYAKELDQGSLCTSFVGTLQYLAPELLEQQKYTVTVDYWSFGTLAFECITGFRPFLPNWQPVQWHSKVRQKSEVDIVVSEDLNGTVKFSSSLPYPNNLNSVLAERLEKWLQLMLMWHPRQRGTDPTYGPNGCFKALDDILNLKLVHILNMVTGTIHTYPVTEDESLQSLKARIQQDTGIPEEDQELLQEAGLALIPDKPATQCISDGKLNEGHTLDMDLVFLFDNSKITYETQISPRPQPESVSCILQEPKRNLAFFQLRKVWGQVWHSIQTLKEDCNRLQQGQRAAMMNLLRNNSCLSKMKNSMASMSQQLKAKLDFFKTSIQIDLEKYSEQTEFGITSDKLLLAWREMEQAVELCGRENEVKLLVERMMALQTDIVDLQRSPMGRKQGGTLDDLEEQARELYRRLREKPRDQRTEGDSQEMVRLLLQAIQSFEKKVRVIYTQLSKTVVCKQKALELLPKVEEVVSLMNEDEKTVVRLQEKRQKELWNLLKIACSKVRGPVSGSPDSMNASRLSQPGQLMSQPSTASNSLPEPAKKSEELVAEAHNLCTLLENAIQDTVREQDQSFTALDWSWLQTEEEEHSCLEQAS

[16] = biological target: T2, Inhibitor of nuclear factor kappa-B kinase subunit beta (Homo sapiens); assay: Inhibition of IKKbeta phosphorylation in high glucose-induced HUVEC cells at 1 uM relative to control; type: cell-based
[17] = biological target: T2, Inhibitor of nuclear factor kappa-B kinase subunit beta (Homo sapiens); assay: Inhibition of IKKbeta phosphorylation in high glucose-induced HUVEC cells at 10 uM relative to control; type: cell-based
[18] = tested on: Rat aortic endothelial cell; assay: Inhibition of NF-kappaB p65 phosphorylation in high glucose-induced Rat aortic endothelial cell at 0.1 uM relative to control; type: cell-based
[19] = tested on: Rat aortic endothelial cell; assay: Inhibition of NF-kappaB p65 phosphorylation in high glucose-induced Rat aortic endothelial cell at 1 uM relative to control; type: cell-based
[20] = tested on: Rat aortic endothelial cell; assay: Inhibition of NF-kappaB p65 phosphorylation in high glucose-induced Rat aortic endothelial cell at 10 uM relative to control; type: cell-based
Mus musculus [21] = assay: Anti-inflammatory activity in mouse model of xylene-induced auricle edema assessed as inhibition of ear swelling at 200 mg/kg, IG pre-treated for 1 hr followed by xylene addition and measured after 1 hr relative to control; type: functional; parameters: scale not given: the % may be the effect or the level left

Compound: COc1cc(-c2cc(=O)c3c(O)cc(O)cc3o2)cc(O)c1OC
Activity [2]: 40%
inhibition (RAW264.7 [3]): 23.1%
Activity [4]: 83.3%
Activity [5]: 98.4%
Activity [6]: 86.1%

Compound: COc1cc(O)c2c(=O)c(-c3ccc(O)c(OC)c3)coc2c1
Activity (Neutrophil): 49%

Compound: C=C1C(=O)O[C@@H]2C3O[C@]3(C)CC/C=C(\C)CC[C@@H]12 (some centres undefined)
IC50 [7]: 1.5 µM
IC50 (HEK293): 1.5 µM

Compound: CC(C)=CCC/C(C)=C/Cc1c(O)cc2oc(-c3ccc(O)cc3)cc(=O)c2c1O
IC50 (Mus musculus [8]): 4.1 µg/mL (≈ 10.1 µM)

Compound: COc1cc(-c2cc(=O)c3c(O)c(OC)c(O)cc3o2)c(O)cc1O
inhibition [9]: 46.9%
Activity (RAW264.7 [10]): 54%

Compound: COc1ccc(-c2cc(=O)c3c(OC)c(OC)c(OC)cc3o2)cc1
Activity (Mus musculus [14]): 42.8%

Compound: O=C1O[C@H]([C@@H](O)CO)C(O)=C1O [ASCORBIC ACID]
IC50 [12]: 2.1 µM
IC50 [13]: 3.3 µM

Compound: CC(=O)Oc1ccccc1C(=O)O [ASPIRIN]
Activity (Mus musculus [21]): 41.07%

Continued, in another order:

IC50 (J774.A1): 35.5 µM
IC50 (RAW264.7 [1]): 41.2 µM
Compound: COc1cc(O)c2c(c1CC=C(C)C)OC(c1ccccc1)CC2=O (centres undefined)

IC50 (Mus musculus [8]): 3.5 µg/mL (≈ 8.28 µM)
Compound: C=C(C)[C@H](O)CC/C(C)=C/Cc1c(O)cc2oc(-c3ccc(O)cc3)cc(=O)c2c1O

IC50 (BV-2): 12.4 µM
Compound: CC(C)(O)[C@@H]1Cc2cc(/C=C/C(=O)c3ccc4c(c3O)C[C@H](C(C)(C)O)O4)ccc2O1

IC50 (RAW264.7 [11]): 27.7 µM
IC50 [12]: 5 µM
IC50 [13]: 7.9 µM
Compound: COc1c(O)ccc2c(=O)cc(-c3ccc(O)c(O)c3)oc12

IC50 (BV-2): 3.25 µM
Compound: CC(C)(O)CCc1c(O)ccc(C(=O)/C=C/c2ccc3c(c2)C[C@@H](C(C)(C)O)O3)c1O

inhibition [15]: 23.2%
inhibition [16]: 53.6%
inhibition [17]: 88.4%
Compound: COc1c(O)cc2oc(-c3ccc(O)cc3)cc(=O)c2c1O
inhibition [18]: 26.1%
inhibition [19]: 57.4%
inhibition [20]: 93.2%
